Holding throughout (experiment): inhibition of tumour cell growth, NCI panel, 48 h
In experiment [1] the test system is 786-0 renal.
In experiment [2] the test system is LOX IMVI melanoma.
In experiment [3] the test system is NCI-H460 lung.
For experiment [4], the system named is PC-3 prostate.
The subject of experiment [5] is RXF 393 renal.
Experiment [6] has as its system SNB-19 CNS.
Experiment [7] relates to SNB-75 CNS.
Experiment [8] deals with SW-620 colon.
In experiment [9] the test system is UO-31 renal.
The test system of experiment [10] is BT-549 breast.

Molecules are shown by their SMILES.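 Exposure lasted 48 hours, with cells grown in 96-well plates and compounds tested at five concentrations. GI50 is the concentration that inhibits growth by half. At the TGI there is no net growth.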

`N#C/C(=C\c1cccc(Br)c1)c1nc2ccccc2c(=O)[nH]1`: the TGI in [1], in experiment [2], in [3], in experiment [4], in [5] and in experiment [6] was greater than 100 µM throughout. Also, the values for the TGI in experiment [7], in experiment [8] and in experiment [9] were 76 µM, greater than 100 µM and greater than 100 µM, respectively.
As for `Clc1ccc(OCc2nnc(COc3ccc(OCc4nnc(COc5ccc(Cl)cc5Cl)o4)c(Cl)c3)o2)c(Cl)c1`, the TGI is greater than 100 µM in experiment [1]; greater than 100 µM in experiment [10]; 33.4 µM in experiment [2]; greater than 100 µM in [3]; greater than 100 µM in experiment [4]; 59.6 µM in experiment [5]. Moreover, the TGI in experiment [6] is greater than 100 µM; in experiment [8], greater than 100 µM; in experiment [9], 36.7 µM.
Consider `C[C@H](c1ccccc1)N1C(=O)[C@@H](OCc2ccccc2)[C@H]1[C@H](COC(=O)COCc1ccccc1)OCc1ccccc1`, for which the TGI in experiment [1], in experiment [2], in [4], in experiment [6], in experiment [7] and in [8] was greater than 100 µM throughout. For the same compound, the TGI in experiment [9] was greater than 100 µM.
On to `CN(C)CCCNc1cc(O)c2c(c1O)C(=O)c1ccccc1C2=O`, for which the TGI was found to be 21 µM in experiment [1]; 34.2 µM in experiment [10]; 24.8 µM in experiment [2]; 19.4 µM in [3]; 27.5 µM in experiment [4]; 17 µM in experiment [5]. Besides, the figures for the TGI in experiment [6], in [8] and in experiment [9] were 21.8 µM, 21.7 µM and 11.9 µM, respectively.
Consider `c1c(N2CCOCC2)ssc1=[N+]1CCOCC1`, for which the TGI in [1], in experiment [2], in experiment [3], in [5], in [6] and in experiment [7] was greater than 100 µM in each case. Moreover, the TGI in experiment [8] and in experiment [9] was greater than 100 µM throughout.
In the case of `CCN(CCCCCCCCCCN1CC(=O)N(CCCCCCCCCCN(CC)Cc2ccccc2OC)CC1=O)Cc1ccccc1OC`, the GI50 in [2] was 0.587 µM; in [3], 1.54 µM; in experiment [4], 1.14 µM; in [5], 0.646 µM; in experiment [6], 3.18 µM; in experiment [7], 2.68 µM. Besides, the GI50 in experiment [8] was 1.75 µM; in [9] it was 1.09 µM. The TGI amounted to 1.93 µM in [2]; 3.62 µM in [3]; 2.59 µM in [4]; 1.93 µM in experiment [5]; 10.5 µM in [6]; 11.8 µM in experiment [7]. Also, the TGI is 3.95 µM in experiment [8] and 3.25 µM in [9].
On to `Cn1nc2c(c1N)Cc1c(nn(C)c1N)-c1ccccc1-2`, for which the TGI in [1], in experiment [10], in experiment [2], in experiment [3], in experiment [4] and in [5] was greater than 100 µM throughout. In addition, the TGI in experiment [6], in experiment [8] and in experiment [9] was greater than 100 µM throughout.
For `Cn1c2c(c3ccccc31)CCN1C(=O)C34CCCC3CC21S4` (stereo not drawn), the TGI in [1], in experiment [10], in experiment [2], in [4], in experiment [5] and in experiment [6] was greater than 100 µM throughout. For the same compound, the TGI in experiment [8] and in [9] was greater than 100 µM in each case.
Consider `CC(O)CNC1=CC(=O)C(=O)c2ccccc21` (stereo not drawn), for which the TGI was 32.2 µM in experiment [1]; 34.8 µM in [2]; 30.6 µM in [3]; greater than 100 µM in experiment [4]; greater than 100 µM in experiment [5]; 32 µM in [6]. Further, the results for the TGI in experiment [7], in [8] and in experiment [9] were 29.8 µM, 40.1 µM and 34 µM, respectively.
Take `CC(C)=CCC12Cc3ccc(O)cc3C(C(C)CN1)C2C` (stereo not drawn): the TGI in experiment [1], in experiment [2], in experiment [3], in experiment [5], in experiment [6] and in experiment [7] was greater than 100 µM throughout. Further, the TGI in [8] and in [9] was greater than 100 µM throughout.
`CC(=O)OC1CC2(O)C(CCC3(C)C(c4ccc(=O)oc4)CCC32O)C2(C)C1=CC(O)C1OC12` (stereo not drawn): the TGI in experiment [2] stood at 1.02 µM; in [3] it was 0.0466 µM; in [5], 0.0324 µM; in experiment [6] it was 0.461 µM; in [7], 0.3 µM; in [8] it was 0.144 µM. The TGI in experiment [9] worked out at 0.323 µM.
For the compound `COC(=O)C1=C(C)NC(C)=C(C(=O)OC)C1c1cccc(N=O)c1`, the TGI in [1] is 30.3 µM; in experiment [10], 31 µM; in experiment [2], 31.6 µM; in experiment [3], 31 µM; in experiment [4], 31.7 µM; in [5] it was 26.8 µM. For the same compound, the TGI in experiment [6] is greater than 100 µM; in experiment [8] it was 17.7 µM; in [9], 21 µM.
For `CCCO/N=[N+](\[O-])N(CC)CC`, the TGI in experiment [2], in [3], in experiment [5], in experiment [6], in experiment [8] and in [9] was greater than 100 µM in each case.
Turning to `CCN(CC)c1ccc(NC(=S)NN(C)C)cc1`, the TGI in [1], in experiment [2], in experiment [3], in [4], in experiment [5] and in experiment [6] was greater than 10 µM each time. The TGI in experiment [7], in experiment [8] and in experiment [9] was greater than 10 µM throughout.

For the origin of these results see PubChem BioAssay (NCI).
